Test results: PubChem BioAssay AID2060483 (Molecular Pharmacology Branch, DTP, NCI, 2025)

System: K24384-001-R-PDC complex spheroids, viability
Test: Anticancer human tumor K24384-001-R-PDC patient-derived pancreatic adenocarcinoma cell line growth inhibition [GQUAD]
Conditions: for IC50: curve of first compound; for viability, T/C: stronger effect = lower value
In short: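 Tumor cells were grown as complex spheroids with HUVEC endothelial cells and mesenchymal stem cells as stroma. G-quadruplex stabilizers were combined with targeted agents over half-log dilutions from near the clinical Cmax, or from 10 microM.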

[1] = second compound 0.0316 µM, first compound 0.0316 µM
[2] = second compound 0.0316 µM, first compound 0.1 µM
[3] = second compound 0.0316 µM, first compound 0.316 µM
[4] = second compound 0.0316 µM, first compound 1 µM
[5] = second compound 0.0316 µM, first compound 3.16 µM
[6] = second compound 0.0316 µM, first compound 10 µM
[7] = second compound 0.1 µM, first compound 0.0316 µM
[8] = second compound 0.1 µM, first compound 0.1 µM
[9] = second compound 0.1 µM, first compound 0.316 µM
[10] = second compound 0.1 µM, first compound 1 µM
[11] = second compound 0.1 µM, first compound 3.16 µM
[12] = second compound 0.1 µM, first compound 10 µM
[13] = second compound 0.316 µM, first compound 0.0316 µM
[14] = second compound 0.316 µM, first compound 0.1 µM
[15] = second compound 0.316 µM, first compound 0.316 µM
[16] = second compound 0.316 µM, first compound 1 µM
[17] = second compound 0.316 µM, first compound 3.16 µM
[18] = second compound 0.316 µM, first compound 10 µM
[19] = second compound 1 µM, first compound 0.0316 µM
[20] = second compound 1 µM, first compound 0.1 µM
[21] = second compound 1 µM, first compound 0.316 µM
[22] = second compound 1 µM, first compound 1 µM
[23] = second compound 1 µM, first compound 3.16 µM
[24] = second compound 1 µM, first compound 10 µM
[25] = second compound 3.16 µM, first compound 0.0316 µM
[26] = second compound 3.16 µM, first compound 0.1 µM
[27] = second compound 3.16 µM, first compound 0.316 µM
[28] = second compound 3.16 µM, first compound 1 µM
[29] = second compound 3.16 µM, first compound 3.16 µM
[30] = second compound 3.16 µM, first compound 10 µM
[31] = second compound 10 µM, first compound 0.0316 µM
[32] = second compound 10 µM, first compound 0.1 µM
[33] = second compound 10 µM, first compound 0.316 µM
[34] = second compound 10 µM, first compound 1 µM
[35] = second compound 10 µM, first compound 3.16 µM
[36] = second compound 10 µM, first compound 10 µM
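Also: spheroids exposed to compounds for seven days.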

Compound: CC(=O)O[C@H]1C(=O)[C@@]2(C)[C@H]([C@H](OC(=O)c3ccccc3)[C@]3(O)C[C@H](OC(=O)[C@H](O)[C@@H](NC(=O)c4ccccc4)c4ccccc4)C(C)=C1C3(C)C)[C@]1(OC(C)=O)CO[C@@H]1C[C@@H]2O + Cc1cnc(CNC(=O)c2c(=O)c3ccc(N4CCCN(C)CC4)nc3n3c2sc2ccccc23)cn1
- IC50 (second compound 0.0316 µM): 37.4 nM
- IC50 (second compound 0.1 µM): < 31.6 nM
- IC50 (second compound 0.316 µM): < 31.6 nM
- IC50 (second compound 1 µM): < 31.6 nM
- IC50 (second compound 3.16 µM): < 31.6 nM
- IC50 (second compound 10 µM): < 31.6 nM
- viability, T/C [1]: 53.4%
- viability, T/C [2]: 27.2%
- viability, T/C [3]: 38.1%
- viability, T/C [4]: 23.7%
- viability, T/C [5]: 29.2%
- viability, T/C [6]: 31.1%
- viability, T/C [7]: 47.4%
- viability, T/C [8]: 35.2%
- viability, T/C [9]: 30.4%
- viability, T/C [10]: 31.8%
- viability, T/C [11]: 29.5%
- viability, T/C [12]: 36.8%
- viability, T/C [13]: 47%
- viability, T/C [14]: 39.9%
- viability, T/C [15]: 36.5%
- viability, T/C [16]: 29.9%
- viability, T/C [17]: 39.1%
- viability, T/C [18]: 34.3%
- viability, T/C [19]: 32.4%
- viability, T/C [20]: 36.2%
- viability, T/C [21]: 26.6%
- viability, T/C [22]: 37.4%
- viability, T/C [23]: 41.9%
- viability, T/C [24]: 34.4%
- viability, T/C [25]: 31.9%
- viability, T/C [26]: 33.5%
- viability, T/C [27]: 32.6%
- viability, T/C [28]: 28.9%
- viability, T/C [29]: 32.5%
- viability, T/C [30]: 36.5%
- viability, T/C [31]: 0.14%
- viability, T/C [32]: 0.18%
- viability, T/C [33]: 0.21%
- viability, T/C [34]: 0.18%
- viability, T/C [35]: 0.19%
- viability, T/C [36]: 0.2%

Compound: COc1cc(C2c3cc4c(cc3C(OC3OC5COC(C)OC5C(O)C3O)C3COC(=O)C23)OCO4)cc(OC)c1O (centres undefined) + Cc1cnc(CNC(=O)c2c(=O)c3ccc(N4CCCN(C)CC4)nc3n3c2sc2ccccc23)cn1
- IC50 (second compound 0.0316 µM): 865 nM
- IC50 (second compound 0.1 µM): 2380 nM
- IC50 (second compound 0.316 µM): 31.6 nM
- IC50 (second compound 1 µM): < 31.6 nM
- IC50 (second compound 3.16 µM): < 31.6 nM
- IC50 (second compound 10 µM): < 31.6 nM
- viability, T/C [1]: 79.9%
- viability, T/C [2]: 71.2%
- viability, T/C [3]: 99.5%
- viability, T/C [4]: 45.1%
- viability, T/C [5]: 45.3%
- viability, T/C [6]: 25.9%
- viability, T/C [7]: 62.1%
- viability, T/C [8]: 68.8%
- viability, T/C [9]: 61.3%
- viability, T/C [10]: 57.5%
- viability, T/C [11]: 47.8%
- viability, T/C [12]: 34.1%
- viability, T/C [13]: 46.1%
- viability, T/C [14]: 51.4%
- viability, T/C [15]: 46%
- viability, T/C [16]: 46.4%
- viability, T/C [17]: 52.4%
- viability, T/C [18]: 34.8%
- viability, T/C [19]: 35.1%
- viability, T/C [20]: 49.1%
- viability, T/C [21]: 38.1%
- viability, T/C [22]: 46%
- viability, T/C [23]: 43.4%
- viability, T/C [24]: 30.8%
- viability, T/C [25]: 36.3%
- viability, T/C [26]: 44.9%
- viability, T/C [27]: 41.2%
- viability, T/C [28]: 47.1%
- viability, T/C [29]: 39%
- viability, T/C [30]: 26%
- viability, T/C [31]: 30.4%
- viability, T/C [32]: 28.1%
- viability, T/C [33]: 32.3%
- viability, T/C [34]: 33%
- viability, T/C [35]: 10.4%
- viability, T/C [36]: 0.63%
